Results on six compounds are retold here after patent EP2861555B1, “PROCESS FOR DEPIGMENTING KERATIN MATERIALS USING NOVEL RESORCINOL-BASED COMPOUNDS” (L'Oréal, priority 2012, dated 2013).

For series [1], the system named is coculture of keratinocytes and melanocytes. In words: Cytotoxicity on keratinocyte/melanocyte coculture, estimated by incorporation of leucine. It counts as cell-based.
Series [2] has the same test system. In words: Inhibitory activity on melanin synthesis (constitutive melanogenesis), ratio of thiouracil to leucine incorporation. Conditions: concentration for which 50% of the synthesis of the melanin is inhibited; thiouracil/leucine incorporation ratio relative to 100% for the control. It counts as cell-based. As to the method:
This test is carried out on a coculture of keratinocytes and melanocytes.
For the test compound, the following were determined: • the cytotoxicity, by estimating the incorporation of leucine, • the inhibitory activity on melanin synthesis, by estimating the ratio of the incorporation of thiouracil to the incorporation of leucine, relative to 100% for the control (the control corresponds to the test performed without test compound). The IC50 (concentration for which 50% of the synthesis of the melanin is inhibited) values were determined.
The test was also carried out with arbutin and kojic acid, which are known depigmenting compounds.

The test system of series [3] is pigmented reconstructed epidermis. In words: Test on pigmented reconstructed epidermis samples, melanin quantified by image analysis. It counts as cell-based, human. How it is done: Compositions comprising 300 µM of compound 1 in DMSO were applied to samples of pigmented reconstructed epidermis (cf. EP 1 878 790). The control is DMSO. The melanin was quantified by image analysis on histological slices after staining with Fontana Masson dye. Each sample of coloured epidermis is photographed over its entire length using a camera connected to a microscope. The melanin is thresholded and the number of melanin pixels is measured in each field using automated image analysis software. A non-parametric statistical test is performed in order to determine the significance of the measurements (Mann-Whitney test).
The pigmented reconstructed epidermis standard study model was published by: Regnier M, Duval C, Galey JB, Philippe M, Lagrange A, Tuloup R, Schmidt R, Cellular and Molecular Biology, 1999, 45, 7, 969-980: "Keratinocyte-Melanocyte co-cultures and pigmented reconstructed human epidermis: models to study modulation of melanogenesis".

The structures appear in SMILES notation. pIC50: −log10 of the molar value.

Take `CCOC(=O)C(Cc1ccccc1)NC(=O)C(CCO)Cc1ccc(O)cc1O` (stereo not shown): the Cytotoxicity on coculture entry in series [1] is given as “Non-cytotoxic”. In series [2], the negative logarithm of the IC50 (pIC50) (in general, −log10 of the IC50, conventionally taken in molar units) was 6.82.
As for `CCOC(=O)C(CC(C)C)NC(=O)C(CCO)Cc1ccc(O)cc1O` (stereo not shown), the Cytotoxicity on coculture entry in series [1] is recorded as “Non-cytotoxic”. Moreover, in series [2], the pIC50 is 4.00.
In the same order, the values of `CCCCC(CC)CNC(=O)C(CCO)Cc1ccc(O)cc1O` (stereo not shown) are 50 µM and 4.60.
The like results for `OC[C@H]1O[C@@H](Oc2ccc(O)cc2)[C@H](O)[C@@H](O)[C@@H]1O` [Arbutin, reference compound] were, in that order, “Non-cytotoxic” and less than 3.30.
For the compound `CCOC(=O)[C@H](Cc1ccccc1)NC(=O)C(CCO)Cc1ccc(O)cc1O` (stereo partly shown) [Compound 1, ethyl N-[2-(2,4-dihydroxybenzyl)-4-hydroxybutanoyl]phenylalaninate], the depigmenting activity entry in series [3] (300 µM, pValue < 0.05 (Ttest 0.0006 in table), Mann-Whitney test) is reported as “Significant depigmenting activity”. In series [3] (topical application 300 uM in DMSO, melanin area normalized to DMSO 1/1000 control = 100), the “Percentage (normalized)” value is 71.7. For the same compound, the Average area in series [3] (topical application 300 uM in DMSO, melanin pixels by image analysis after Fontana Masson staining, DMSO 1/1000 control 368.5) came out at 264.2.
Take `O=c1cc(CO)occ1O` [Kojic acid, reference compound]: the Cytotoxicity on coculture in series [1] is recorded as 100 µM. Also, in series [2], the pIC50 was less than 3.30.
